{
  "source": "patent US20050090433A1",
  "about": "(priority 2002, published 2005)",
  "key": {"[1]": {"assay": "Rat quantitative tissue distribution (QTD) study", "details": "male rats, single IV infusion 20 mg/kg"}, "[2]": {"assay": "Pharmacokinetics and renal excretion in healthy subjects", "details": "human, in vivo, iv, 1000 mg; for half-life: healthy subjects, single 1000 mg IV", "description": "Blood samples were drawn into heparinized tubes and centrifuged. Plasma was separated and stored frozen at −20° C. until time of assay. Plasma and urine samples were assayed for dalbavancin using validated LC/MS/MS methods. […] The peak concentration (Cmax) values were obtained directly from the observed data. The area under the plasma concentration-time curve (AUC) was calculated using the linear trapezoidal rule. Clearance (CL) was computed as dose/AUC. The elimination half life (t1/2) was estimated by linear regression of the log-linear portion of the log concentration versus time curve. Estimates of the volume of distribution (Vz) was calculated using the regression parameters, while the volume of distribution at steady state (Vss) was calculated from the area under the first moment curve (AUMC) multiplied by the dose and divided by AUC. The cumulative amount of dalbavancin excreted in urine was determined as the integrand of the urine excretion rate (AURC). CLR or renal clearance, was calculated as the ratio: CLR=AURC/AUC."}, "[3]": {"test_system": "methicillin-resistant S. aureus (MRSA)", "type": "in vivo"}, "bacteria": {"test_system": "bacteria", "assay": "Minimum bactericidal concentration", "type": "cell-based", "details": "24 h, kill at least 99% of bacteria over 24 hour in vitro; in plasma", "excerpt": "The amount of dalbavancin administered may be any of the dosages disclosed herein."}, "[4]": {"assay": "SSTI trial: adverse events", "type": "in vivo, human", "description": "(§1) This randomized, controlled study evaluated the safety and efficacy of two dose regimens of dalbavancin.\nEach patient who received at least one dose of study drug (ITT population) was evaluated for drug safety through monitoring of adverse events (AE), including abnormal clinical laboratory test results and vital signs. AE were rated by the investigator as to their severity (mild, moderate, severe, life-threatening), and by the relationship to the study drug (not related, unlikely related, possibly related, or probably related)."}, "[5]": {"details": "human, in vivo"}, "Streptococcus pyogenes": {"test_system": "Streptococcus pyogenes", "assay": "Dalbavancin MIC, baseline isolates of SSTI trial", "type": "cell-based", "details": "read-out: Dalbavancin MIC, Streptococcus pyogenes, MITT, two-dose group"}, "Group B streptococcus": {"test_system": "Group B streptococcus", "assay": "Dalbavancin MIC, baseline isolates of SSTI trial", "type": "cell-based"}, "Gram-positive pathogen": {"test_system": "Gram-positive pathogen", "assay": "SSTI trial: microbiologic response, all Gram-positive organisms", "type": "in vivo, human", "details": "single dose; EOT and FU, microbiologically-evaluable and MITT populations", "description": "as §1\n(§2) There were 62 patients randomized into the study, all received at least one dose of study medication. Four study populations were evaluated for safety and efficacy and were defined as follows: The intent-to-treat (I) population included all patients who received at least one dose of study drug (all randomized study subjects).\nMicrobiological outcome, a secondary efficacy variable, was assessed in the subpopulation of patients who had microbiologically documented SSTI (i.e., at least one identified baseline pathogen). A microbiologic response was assessed for each Gram-positive pathogen identified at baseline (i.e., eradication, presumed eradication, persistence, presumed persistence). For patients for whom follow-up cultures were not performed, the microbiologic responses for baseline pathogens were presumed on the basis of the clinical response. Microbiologic response by patient at the EOT and FU visits was graded as success (i.e., all Gram-positive organisms eradicated or presumed eradicated) or failure (i.e., at least one Gram-positive organism persisted or presumed to have persisted, multiple pathogens with partial eradication). At both the EOT and FU visits, colonization and superinfection were assessed. […]"}, "Dog albumin": {"target": "Dog albumin (Canis lupus familiaris, UniProt P49822)", "sequence (P49822 25-608)": "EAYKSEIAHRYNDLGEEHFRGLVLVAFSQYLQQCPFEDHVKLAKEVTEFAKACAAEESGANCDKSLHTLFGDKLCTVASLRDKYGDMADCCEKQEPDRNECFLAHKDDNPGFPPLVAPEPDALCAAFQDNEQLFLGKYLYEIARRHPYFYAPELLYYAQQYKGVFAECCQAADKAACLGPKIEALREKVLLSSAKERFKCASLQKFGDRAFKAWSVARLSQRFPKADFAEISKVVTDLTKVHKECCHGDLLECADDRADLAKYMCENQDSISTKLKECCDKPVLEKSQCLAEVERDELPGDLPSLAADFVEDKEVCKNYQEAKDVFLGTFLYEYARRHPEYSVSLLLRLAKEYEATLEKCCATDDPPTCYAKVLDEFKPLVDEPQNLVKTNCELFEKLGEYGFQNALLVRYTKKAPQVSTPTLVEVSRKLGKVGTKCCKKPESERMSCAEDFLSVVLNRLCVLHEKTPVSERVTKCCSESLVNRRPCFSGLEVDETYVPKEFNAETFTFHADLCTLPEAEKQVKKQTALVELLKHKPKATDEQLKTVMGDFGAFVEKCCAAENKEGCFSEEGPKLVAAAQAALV", "assay": "Protein binding by isothermal titration microcalorimetry", "details": "Apparent binding affinity Ka, pH 7.4, ± SD of fit"}, "[6]": {"test_system": "Gram-positive isolates, including MRSA", "assay": "Dalbavancin MIC, Gram-positive isolates of SSTI trial", "type": "cell-based", "details": "Staphylococcus aureus, read-out: MICs against Gram-positive isolates, including MRSA"}, "Human albumin": {"target": "Human albumin (Homo sapiens, UniProt P02768)", "sequence (P02768 25-609)": "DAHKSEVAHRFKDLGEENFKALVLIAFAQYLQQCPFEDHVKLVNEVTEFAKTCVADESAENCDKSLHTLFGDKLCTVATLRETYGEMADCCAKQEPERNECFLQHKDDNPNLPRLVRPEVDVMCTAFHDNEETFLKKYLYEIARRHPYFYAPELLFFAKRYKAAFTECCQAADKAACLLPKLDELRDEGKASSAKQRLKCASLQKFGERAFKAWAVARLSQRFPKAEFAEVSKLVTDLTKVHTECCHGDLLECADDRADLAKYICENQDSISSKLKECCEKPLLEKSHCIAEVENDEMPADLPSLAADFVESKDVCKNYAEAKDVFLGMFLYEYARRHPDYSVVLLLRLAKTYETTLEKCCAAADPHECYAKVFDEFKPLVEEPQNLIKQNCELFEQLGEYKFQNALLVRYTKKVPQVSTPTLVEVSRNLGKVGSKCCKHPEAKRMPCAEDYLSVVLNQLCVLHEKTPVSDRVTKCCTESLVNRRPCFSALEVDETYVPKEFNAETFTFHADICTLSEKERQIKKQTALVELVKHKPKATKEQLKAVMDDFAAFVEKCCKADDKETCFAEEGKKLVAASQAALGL", "assay": "Protein binding by isothermal titration microcalorimetry", "details": "Apparent binding affinity Ka, Human albumin, pH 7.4, ± SD of fit"}, "[7]": {"assay": "Safety assessments in healthy subjects", "details": "single 1000 mg IV"}, "S. aureus": {"test_system": "S. aureus", "assay": "Dalbavancin MIC, baseline isolates of SSTI trial", "type": "cell-based", "details": "MITT"}, "[8]": {"test_system": "skin and soft tissue infections (SSTI)", "assay": "Phase II trial in deep skin and soft tissue infections: clinical response", "type": "in vivo, human", "details": "exploratory subanalysis", "description": "as §1, §2\nThe effectiveness of the three treatment regimens was determined by assessing the patients' clinical response and the documented or presumed microbiological responses. The primary efficacy endpoint was clinical response at the follow-up visit for the clinically evaluable population. Clinical response, for both EOT and FU visits, was categorized as success (cure or improvement) or failure (including indeterminate results). Patients classified as successes must not have received additional systemic antibacterial treatment for their infection. Failure was defined as persistence of one or more local or systemic signs and symptoms of SSTI such that treatment with new or additional systemic antibacterial agents was required for the SSTI."}, "Bovine albumin": {"target": "Bovine albumin (Bos taurus, UniProt P02769)", "sequence (P02769 25-607)": "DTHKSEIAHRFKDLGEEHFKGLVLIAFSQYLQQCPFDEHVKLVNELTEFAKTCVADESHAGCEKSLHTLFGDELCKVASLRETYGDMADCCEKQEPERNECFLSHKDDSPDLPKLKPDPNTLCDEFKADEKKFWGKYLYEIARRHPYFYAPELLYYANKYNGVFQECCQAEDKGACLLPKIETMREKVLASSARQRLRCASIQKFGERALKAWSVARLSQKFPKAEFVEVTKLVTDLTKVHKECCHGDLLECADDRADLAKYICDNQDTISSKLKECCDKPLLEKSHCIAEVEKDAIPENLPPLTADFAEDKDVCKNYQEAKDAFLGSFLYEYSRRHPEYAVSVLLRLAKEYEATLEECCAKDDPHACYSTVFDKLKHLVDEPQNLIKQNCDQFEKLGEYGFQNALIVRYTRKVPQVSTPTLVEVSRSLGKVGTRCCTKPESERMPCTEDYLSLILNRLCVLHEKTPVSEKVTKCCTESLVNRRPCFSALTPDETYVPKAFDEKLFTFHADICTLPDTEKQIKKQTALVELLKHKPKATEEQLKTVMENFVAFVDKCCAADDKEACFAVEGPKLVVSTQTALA", "assay": "Protein binding by isothermal titration microcalorimetry"}, "Rat albumin": {"target": "Rat albumin (Rattus norvegicus, UniProt P02770)", "sequence (P02770 25-608)": "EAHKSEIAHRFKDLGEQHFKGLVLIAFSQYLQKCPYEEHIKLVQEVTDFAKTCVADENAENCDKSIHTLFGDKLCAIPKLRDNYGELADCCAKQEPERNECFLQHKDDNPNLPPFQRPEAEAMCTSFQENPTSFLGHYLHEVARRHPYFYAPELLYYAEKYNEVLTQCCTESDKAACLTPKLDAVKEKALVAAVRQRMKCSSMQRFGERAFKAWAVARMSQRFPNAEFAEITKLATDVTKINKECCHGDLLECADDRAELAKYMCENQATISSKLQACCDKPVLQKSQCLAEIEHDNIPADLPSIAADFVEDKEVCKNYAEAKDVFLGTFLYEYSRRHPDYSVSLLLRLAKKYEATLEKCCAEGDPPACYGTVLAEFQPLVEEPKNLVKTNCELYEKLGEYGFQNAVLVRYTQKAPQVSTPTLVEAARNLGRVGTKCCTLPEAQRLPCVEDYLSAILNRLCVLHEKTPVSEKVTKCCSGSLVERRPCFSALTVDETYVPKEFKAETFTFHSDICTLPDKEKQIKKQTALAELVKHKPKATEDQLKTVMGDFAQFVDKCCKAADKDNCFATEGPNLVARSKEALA", "assay": "Protein binding by isothermal titration microcalorimetry", "details": "Apparent binding affinity Ka, pH 7.4, ± SD of fit"}, "[9]": {"details": "two-dose 1000 mg IV day 1, 500 mg day 8"}},
  "note": "Read-outs that look alike come from different tables or passages of the source.",
  "data": [
    {"molecule": "CN[C@H]1C(=O)N[C@@H]2Cc3ccc(cc3)Oc3cc4cc(c3O[C@@H]3O[C@H](C(=O)O)[C@@H](O)[C@H](O)[C@H]3NC(=O)CCCCCCCCC(C)C)Oc3ccc(cc3Cl)[C@@H](O)[C@@H]3NC(=O)[C@H](NC(=O)[C@@H]4NC(=O)[C@@H](NC2=O)c2cc(cc(O)c2Cl)Oc2cc1ccc2O)c1ccc(O)c(c1)-c1c(O[C@H]2O[C@H](CO)[C@@H](O)[C@H](O)[C@@H]2O)cc(O)cc1[C@@H](C(=O)NCCCN(C)C)NC3=O", "note": "[Dalbavancin]", "values": [
      {"measurement": "Skin concentrations of drug-derived radioactivity relative to plasma", "setting": "[1]", "value": "as high as or higher than in plasma"},
      {"measurement": "AUC", "setting": "[2]; both sexes", "value": 23800, "unit": "µg·h/mL"},
      {"measurement": "clearance", "setting": "[2]; both sexes", "value": 0.718, "unit": "mL/min"},
      {"measurement": "Vd", "setting": "[2]; both sexes, Apparent volume of distribution", "value": "> 10", "unit": "L"},
      {"measurement": "CL renal", "setting": "[2]; both sexes, CLR", "value": 0.3, "unit": "mL/min"},
      {"measurement": "Vd", "setting": "[2]; both sexes, VSS", "value": 11.5, "unit": "L"},
      {"measurement": "Vd", "setting": "[2]; both sexes, VZ", "value": 16, "unit": "L"},
      {"measurement": "half-life", "setting": "[2]; both sexes", "value": "9 to 12", "unit": "days"},
      {"measurement": "half-life", "setting": "[2]; both sexes, mean", "value": 10.7, "unit": "days"},
      {"measurement": "CL", "setting": "[2]; both", "value": 0.0431, "unit": "L/h"},
      {"measurement": "CLR", "setting": "[2]; both", "value": 0.0181, "unit": "L/h"},
      {"measurement": "Clinical success rate at FU, MITT patients with MRSA", "setting": "[3]; single-dose 1100 mg IV day 1", "value": 50, "unit": "%"},
      {"measurement": "Clinical success rate at FU, MITT patients with MRSA", "setting": "[3]; [9]", "value": 80, "unit": "%"},
      {"measurement": "MBC", "setting": "bacteria", "value": "4 to 10", "unit": "µg/mL"},
      {"measurement": "AE leading to discontinuation of study medication", "setting": "[4]; human, in vivo", "value": 0, "unit": "%"},
      {"measurement": "≧1 AE", "setting": "[4]; human, in vivo", "value": 95, "unit": "%"},
      {"measurement": "≧1 severe AE", "setting": "[4]; human, in vivo", "value": "2 (10%)"},
      {"measurement": "Hepatotoxicity or nephrotoxicity", "setting": "[4]; in vivo", "value": "no evidence that dalbavancin induces any degree of clinically significant hepatotoxicity or nephrotoxicity"},
      {"measurement": "Serious adverse events related to study drug", "setting": "[4]; in vivo", "value": "no serious adverse events related to study drug treatment"},
      {"measurement": "Tolerability", "setting": "[4]; in vivo", "value": "well tolerated"},
      {"measurement": "≧1 AE possibly/probably related to treatment", "setting": "[4]; single-dose (N = 20)", "value": 55, "unit": "%"},
      {"measurement": "≧1 AE possibly/probably related to treatment", "setting": "[4]; two-dose (N = 21)", "value": 48, "unit": "%"},
      {"measurement": "Eosinophilia, AE possibly related to study medication", "setting": "[5]", "value": 500, "unit": "µL⁻¹"},
      {"measurement": "Intensity of reported AEs", "setting": "[5]", "value": "all of mild intensity"},
      {"measurement": "MIC", "setting": "Streptococcus pyogenes", "value": 0.016, "unit": "µg/mL"},
      {"measurement": "Dalbavancin MIC, Group B streptococcus", "setting": "Group B streptococcus; MITT, standard of care group", "value": "2 (0.016) mg/L"},
      {"measurement": "MIC", "setting": "Group B streptococcus; Streptococcus, read-out: Dalbavancin MIC, Group B streptococcus, MITT, two-dose group", "value": 0.016, "unit": "µg/mL"},
      {"measurement": "Microbiologic success rates at both visits (summary)", "setting": "Gram-positive pathogen", "value": "< 40", "unit": "%"},
      {"measurement": "Kd", "setting": "Dog albumin; 25° C.", "value": 16.1, "unit": "µM"},
      {"measurement": "Kd", "setting": "Dog albumin; 37° C.", "value": 20, "unit": "µM"},
      {"measurement": "MIC", "setting": "[6]", "value": "0.016 to 0.25", "unit": "µg/mL"},
      {"measurement": "Kd", "setting": "Human albumin; 25° C.", "value": 7.41, "unit": "µM"},
      {"measurement": "Kd", "setting": "Human albumin; 37° C.", "value": 7.52, "unit": "µM"},
      {"measurement": "Deaths or serious adverse events", "setting": "[7]", "value": "No subject deaths or serious adverse events"},
      {"measurement": "Dalbavancin MIC range, All S. aureus", "setting": "S. aureus; standard of care group", "value": "10 (0.016-0.25) mg/L"},
      {"measurement": "Dalbavancin MIC, All S. aureus", "setting": "S. aureus; two-dose group", "value": "11 (0.12) mg/L"},
      {"measurement": "Clinical success rate, patients with deep or complicated SSTI at baseline", "setting": "[8]; single-dose 1100 mg IV day 1", "value": 58.3, "unit": "%"},
      {"measurement": "Clinical success rate, patients with deep or complicated SSTI at baseline", "setting": "[8]; [9]", "value": 93.8, "unit": "%"},
      {"measurement": "Kd", "setting": "Bovine albumin", "value": 7.25, "unit": "µM"},
      {"measurement": "Kd", "setting": "Rat albumin; 25° C.", "value": 3.23, "unit": "µM"},
      {"measurement": "Kd", "setting": "Rat albumin; 37° C.", "value": 3.57, "unit": "µM"}
    ]}
  ]
}
